Assay results reported in ChEMBL document CHEMBL5143637, “Design, synthesis and antibacterial activity against pathogenic mycobacteria of conjugated hydroxamic acids, hydrazides and O-alkyl/O-acyl protected hydroxamic derivatives” (Bioorg Med Chem Lett, 2022).
Converted amounts (≈) assume the structure as drawn.

Key:
[1] = tested on: Mycobacteroides abscessus; assay: Antimycobacterial activity against Mycobacterium abscessus CIP104536T with smooth morphotype assessed as inhibition of mycobacterial growth incubated for 3 to 5 days by resazurin microtiter assay; format: functional; details: time 3-5 day
[2] = tested on: Mycobacteroides abscessus; assay: Antimycobacterial activity against Mycobacterium abscessus CIP104536T with rough morphotype assessed as inhibition of mycobacterial growth incubated for 3 to 5 days by resazurin microtiter assay; format: functional; details: time 3-5 day
Mycobacterium marinum = assay: Antimycobacterial activity against Mycobacterium marinum ATCC BAA-535/M assessed as inhibition of mycobacterial growth incubated for 10 to 14 days by resazurin microtiter assay; format: functional; details: time 10-14 day
[3] = tested on: Mycobacterium tuberculosis; assay: Antimycobacterial activity against Mycobacterium tuberculosis mc2 6230 assessed as inhibition of mycobacterial growth incubated for 10 to 14 days by resazurin microtiter assay; format: functional; details: time 10-14 day
[4] = (§1) Cytotoxicity against C57BL/6 mouse BMDM cells assessed as reduction in cell viability measured after 24 hrs by resazurin dye based assay; format: toxicity; details: C57BL/6, mouse, BMDM cells (bone marrow-derived macrophages)
[5] = tested on: Mycolicibacterium smegmatis; assay: Antimycobacterial activity against wild type Mycobacterium smegmatis mc2 155 assessed as inhibition of mycobacterial growth incubated for 3 to 5 days by resazurin microtiter assay; format: functional; details: time 3-5 day
[6] = tested on: Mycolicibacterium smegmatis; assay: Antimycobacterial activity against Mycobacterium smegmatis mc2 155 harbouring pMyC empty vector assessed as inhibition of mycobacterial growth incubated for 3 to 5 days by resazurin microtiter assay; format: functional; details: time 3-5 day
[7] = tested on: Mycolicibacterium smegmatis; assay: Antimycobacterial activity against Mycobacterium smegmatis mc2 155 harbouring pMyC::PDFMtb overexpression mutant assessed as inhibition of mycobacterial growth incubated for 3 to 5 days by resazurin microtiter assay; format: functional; details: time 3-5 day
[8] = Selectivity index, ratio of MIC50 for antimycobacterial activity against Mycobacterium smegmatis mc2 155 harbouring pMyC empty vector to MIC50 for antimycobacterial activity against wild type Mycobacterium smegmatis mc2 155; format: functional
[9] = Selectivity index, ratio of MIC90 for antimycobacterial activity against Mycobacterium smegmatis mc2 155 harbouring pMyC empty vector to MIC90 for antimycobacterial activity against wild type Mycobacterium smegmatis mc2 155; format: functional
[10] = Selectivity index, ratio of MIC50 for antimycobacterial activity against Mycobacterium smegmatis mc2 155 harbouring pMyC::PDFMtb overexpression mutant to MIC50 for antimycobacterial activity against wild type Mycobacterium smegmatis mc2 155; format: functional
[11] = Selectivity index, ratio of MIC90 for antimycobacterial activity against Mycobacterium smegmatis mc2 155 harbouring pMyC::PDFMtb overexpression mutant to MIC90 for antimycobacterial activity against wild type Mycobacterium smegmatis mc2 155; format: functional
BMDM = assay: as §1; format: toxicity; details: mouse, bmdm, 24 h
[12] = Cytotoxicity against mouse BMDM cells; format: toxicity, cell-based; details: BMDM cells (bone marrow-derived macrophages)
[13] = tested on: Mycobacterium tuberculosis; assay: Antimycobacterial activity against Mycobacterium tuberculosis H37Rv assessed as inhibition of bacterial growth incubated for 8 days; format: functional; details: 192 h, time 8 day

| Compound | MIC50 [1] [µg/mL] | MIC50 [2] [µg/mL] | MIC90 [2] [µg/mL] | MIC50 (Mycobacterium marinum) [µg/mL] | MIC90 (Mycobacterium marinum) [µg/mL] | MIC50 [3] [µg/mL] | MIC90 [3] [µg/mL] | CC50 at 24 h [4] [µg/mL] | MIC90 [1] [µg/mL] | also measured |
| --- | --- | --- | --- | --- | --- | --- | --- | --- | --- | --- |
| NNC(=O)/C=C/c1ccc(-c2ccccc2)cc1 | > 100 | 18.9 (≈ 79.3 µM) | > 100 | 22.2 (≈ 93.2 µM) | 71.5 (≈ 300 µM) | 13.1 (≈ 55 µM) | 22 (≈ 92.3 µM) | 125 (≈ 525 µM) | – | MIC50 [5]: 9.6 µg/mL (≈ 40.3 µM); MIC90 [5]: 53.6 µg/mL (≈ 225 µM); MIC50 [6]: 7.2 µg/mL (≈ 30.2 µM); MIC90 [6]: 43.8 µg/mL (≈ 184 µM); MIC50 [7]: 56.6 µg/mL (≈ 238 µM); MIC90 [7]: > 200 µg/mL; Ratio [8]: 0.75; Ratio [9]: 0.75; Ratio [10]: 5.9; Ratio [11]: > 3.7 |
| Cl.O=C(/C=C/c1ccncc1)NO | > 100 | > 100 | – | 12.6 | 54 | 32.1 | 33.6 | – | – | CC50 (BMDM): < 10 µg/mL |
| NCC[C@H](O)C(=O)N[C@@H]1C[C@H](N)[C@@H](O[C@H]2O[C@H](CN)[C@@H](O)[C@H](O)[C@H]2O)[C@H](O)[C@H]1O[C@H]1O[C@H](CO)[C@@H](O)[C@H](N)[C@H]1O [AMIKACIN] | 2.3 (≈ 3.93 µM) | 4.3 (≈ 7.34 µM) | 5.9 (≈ 10.1 µM) | 0.62 (≈ 1.06 µM) | 1.7 (≈ 2.9 µM) | 0.24 (≈ 0.41 µM) | 0.37 (≈ 0.632 µM) | – | 3.4 (≈ 5.81 µM) | CC50 [12]: > 90 µg/mL |
| NC[C@H]1O[C@H](O[C@H]2[C@H](O)[C@@H](O[C@H]3O[C@H](CO)[C@@H](O)[C@H](N)[C@H]3O)[C@H](N)C[C@@H]2N)[C@H](O)[C@@H](O)[C@@H]1O [KANAMYCIN] | – | – | – | – | – | – | – | – | – | MIC50 [5]: 0.4 µg/mL (≈ 0.826 µM); MIC90 [5]: 0.94 µg/mL (≈ 1.94 µM); MIC50 [6]: 0.48 µg/mL (≈ 0.991 µM); MIC90 [6]: 1.07 µg/mL (≈ 2.21 µM); MIC50 [7]: 0.49 µg/mL (≈ 1.01 µM); MIC90 [7]: 0.87 µg/mL (≈ 1.8 µM); Ratio [8]: 1.2; Ratio [9]: 1.14; Ratio [10]: 1.23; Ratio [11]: 0.93 |
| NNC(=O)c1ccncc1 [ISONIAZID] | – | – | – | 2.8 (≈ 20.4 µM) | 9.2 (≈ 67.1 µM) | 0.07 (≈ 0.51 µM) | 0.11 (≈ 0.802 µM) | – | – | MIC [13]: 0.1 µg/mL (≈ 0.729 µM); MIC50 [5]: 1.4 µg/mL (≈ 10.2 µM); MIC90 [5]: 3.1 µg/mL (≈ 22.6 µM); MIC50 [6]: 1.3 µg/mL (≈ 9.48 µM); MIC90 [6]: 2.7 µg/mL (≈ 19.7 µM); MIC50 [7]: 1.2 µg/mL (≈ 8.75 µM); MIC90 [7]: 2.5 µg/mL (≈ 18.2 µM); Ratio [8]: 0.9; Ratio [9]: 0.86; Ratio [10]: 0.84; Ratio [11]: 0.8; CC50 [12]: > 20 µg/mL |
| O=C(/C=C/c1ccc(C(F)(F)F)cc1)NO | 37.2 (≈ 161 µM) | 6.3 (≈ 27.3 µM) | 21.9 (≈ 94.7 µM) | 14.1 (≈ 61 µM) | > 100 | 14.4 (≈ 62.3 µM) | > 100 | < 10 | 39.6 (≈ 171 µM) | – |
| CCCCCCCCCCOc1ccc(/C=C/C=C/C(=O)NO)cc1 | > 100 | > 100 | – | > 100 | – | > 100 | – | > 125 | – | – |
| O=C(/C=C/c1ccc(F)cc1)NO | > 100 | > 100 | – | 3.5 (≈ 19.3 µM) | 23.9 (≈ 132 µM) | 47.3 (≈ 261 µM) | 55.4 (≈ 306 µM) | < 10 | – | – |
| O=C(/C=C/c1ccncc1)NO | > 100 | > 100 | – | 75 (≈ 457 µM) | > 100 | 35.1 (≈ 214 µM) | 42.9 (≈ 261 µM) | < 10 | – | – |
| CO[C@H]1/C=C/O[C@@]2(C)Oc3c(C)c(O)c4c(O)c(c(/C=N/N5CCN(C)CC5)c(O)c4c3C2=O)NC(=O)/C(C)=C\C=C\[C@H](C)[C@H](O)[C@@H](C)[C@@H](O)[C@@H](C)[C@H](OC(C)=O)[C@@H]1C [RIFAMPIN] | – | – | – | – | – | – | – | – | – | MIC50 [5]: 0.76 µg/mL (≈ 0.924 µM); MIC90 [5]: 0.76 µg/mL (≈ 0.924 µM); MIC50 [6]: 0.57 µg/mL (≈ 0.693 µM); MIC90 [6]: 2.83 µg/mL (≈ 3.44 µM); MIC50 [7]: 0.63 µg/mL (≈ 0.766 µM); MIC90 [7]: 2.4 µg/mL (≈ 2.92 µM); Ratio [8]: 0.75; Ratio [9]: 1.09; Ratio [10]: 0.83; Ratio [11]: 0.93 |
| CCCCCC(=O)ONC(=O)/C=C/C=C/c1ccc(OC)cc1 | > 100 | > 100 | – | 26.8 (≈ 84.4 µM) | 54.5 (≈ 172 µM) | 13.8 (≈ 43.5 µM) | 22.9 (≈ 72.2 µM) | < 10 | – | – |
| O=C(/C=C/C=C/c1cccc(F)c1)NO | 36.8 (≈ 178 µM) | 6 (≈ 29 µM) | 19 (≈ 91.7 µM) | 7.5 (≈ 36.2 µM) | 39.3 (≈ 190 µM) | 7.6 (≈ 36.7 µM) | > 100 | < 10 | > 100 | – |
| O=C(/C=C/c1cccc(C(F)(F)F)c1)NO | 72.5 (≈ 314 µM) | 7.8 (≈ 33.7 µM) | 16 (≈ 69.2 µM) | 7.1 (≈ 30.7 µM) | 47.7 (≈ 206 µM) | 12.8 (≈ 55.4 µM) | > 100 | < 10 | 74.8 (≈ 324 µM) | – |
| O=C(/C=C/C=C/c1cccc(C(F)(F)F)c1)NO | 52.3 (≈ 203 µM) | 4.4 (≈ 17.1 µM) | 7 (≈ 27.2 µM) | 10.1 (≈ 39.3 µM) | > 100 | 50.5 (≈ 196 µM) | > 100 | < 10 | > 100 | – |
| O=C(/C=C/c1ccc2c(c1)OCO2)NO | > 100 | > 100 | – | > 100 | – | 31.9 (≈ 154 µM) | > 100 | 34 (≈ 164 µM) | – | – |
| O=C(/C=C/C=C/c1ccncc1)NO | > 100 | > 100 | – | 26.9 (≈ 141 µM) | > 100 | 19.4 (≈ 102 µM) | 27.6 (≈ 145 µM) | < 10 | – | – |
| CCCCCCCOc1ccc(/C=C/C=C/C(=O)NN)cc1 | 26.6 (≈ 88 µM) | 9.7 (≈ 32.1 µM) | 26.1 (≈ 86.3 µM) | > 100 | – | 27 (≈ 89.3 µM) | 29.1 (≈ 96.2 µM) | 64 (≈ 212 µM) | > 100 | – |
| NNC(=O)/C=C/c1ccc(F)cc1 | > 100 | > 100 | – | 60.5 (≈ 336 µM) | 80.4 (≈ 446 µM) | > 100 | – | < 10 | – | – |
| CCCCCCCOc1ccc(/C=C/C=C/C(=O)NO)cc1 | > 100 | > 100 | – | 48.3 (≈ 159 µM) | 68.3 (≈ 225 µM) | > 100 | – | 67 (≈ 221 µM) | – | – |
| CCCCOc1ccc(/C=C/C=C/C(=O)NO)cc1 | 27.2 (≈ 104 µM) | > 100 | – | > 100 | – | 38.6 (≈ 148 µM) | > 100 | > 125 | 59.3 (≈ 227 µM) | – |
| O=C(/C=C/C=C/c1ccccc1)NO | > 100 | > 100 | – | 14.9 (≈ 78.7 µM) | 91.4 (≈ 483 µM) | > 100 | – | < 10 | – | – |
| O=C(/C=C/C=C/c1ccc(F)cc1)NO | > 100 | > 100 | – | 18.1 (≈ 87.4 µM) | > 100 | > 100 | – | < 10 | – | – |
